Data as given in ChEMBL document CHEMBL1201862, “PubChem BioAssay data set” (2004).
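Each compound was tested at five concentrations against cells in 96-well plates for 48 hours. At the GI50, growth is halved.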 Active and inactive are the calls of the source. Rule as the data show it: active = GI50 up to about 1.1 µM and inactive = higher.

Experiments:
Assay in all cases: growth of human tumour cells (NCI), 48 h
IGROV-1 = test system: IGROV-1
OVCAR-4 = test system: OVCAR-4
SR = test system: SR
RPMI-8226 = test system: RPMI-8226
SF-539 = test system: SF-539
NCI-H23 = test system: NCI-H23
SK-MEL-5 = test system: SK-MEL-5
HCC 2998 = test system: HCC 2998
SK-MEL-28 = test system: SK-MEL-28
A498 = test system: A498
DU-145 = test system: DU-145
ACHN = test system: ACHN
KM12 = test system: KM12
UO-31 = test system: UO-31
SN12C = test system: SN12C
HT-29 = test system: HT-29
HL-60 = test system: HL-60
SK-MEL-2 = test system: SK-MEL-2
TK-10 = test system: TK-10
HOP-92 = test system: HOP-92

Measured: GI50

Cc1c(C#N)c2nnn(-c3cccc(Cl)c3)c(=O)n2c1-c1ccccc1
inactive: IGROV-1 2.54 µM | OVCAR-4 8.61 µM | SF-539 1.59 µM | NCI-H23 8.77 µM | SK-MEL-5 3.84 µM | HCC 2998 3.48 µM | SK-MEL-28 32.3 µM | A498 2.36 µM | DU-145 3.46 µM | ACHN 6.4 µM | UO-31 8.97 µM | SN12C 3.83 µM | HT-29 1.28 µM | HL-60 3.28 µM | SK-MEL-2 1.27 µM | TK-10 9.91 µM | HOP-92 26 µM
active: SR 0.301 µM | RPMI-8226 0.637 µM | KM12 0.895 µM

C/C=C(/C)C(=O)O[C@H]1CCN2CC=C(COC(=O)[C@@](O)([C@H](C)OC)C(C)(C)O)[C@H]12
inactive: IGROV-1 > 100 µM | OVCAR-4 > 100 µM | SR > 100 µM | RPMI-8226 > 100 µM | SF-539 > 100 µM | NCI-H23 > 100 µM | SK-MEL-5 > 100 µM | HCC 2998 > 100 µM | SK-MEL-28 > 100 µM | A498 > 100 µM | DU-145 > 100 µM | ACHN > 100 µM | KM12 > 100 µM | UO-31 > 100 µM | SN12C > 100 µM | HT-29 > 100 µM | HL-60 > 100 µM | SK-MEL-2 > 100 µM | TK-10 > 100 µM | HOP-92 > 100 µM

COC(=O)[C@]12CCC(C)(C)C[C@H]1[C@H]1C(=O)C=C3[C@@]4(C)C=C(C#N)C(=O)C(C)(C)[C@@H]4CC[C@@]3(C)[C@]1(C)CC2 [BARDOXOLONE METHYL]
active: IGROV-1 0.0405 µM | OVCAR-4 0.162 µM | SR 0.0245 µM | RPMI-8226 < 0.0104 µM | SF-539 0.0419 µM | NCI-H23 0.0156 µM | SK-MEL-5 0.0286 µM | HCC 2998 0.0112 µM | SK-MEL-28 0.0759 µM | A498 0.046 µM | DU-145 0.0239 µM | ACHN 0.0285 µM | KM12 0.0163 µM | UO-31 0.0818 µM | SN12C 0.0237 µM | HT-29 0.0552 µM | HL-60 < 0.0138 µM | SK-MEL-2 0.027 µM | TK-10 0.0269 µM | HOP-92 0.0769 µM

O=C1Nc2ccc(Br)cc2/C1=N/c1ccc2c(c1)OCO2
inactive: IGROV-1 27.4 µM | OVCAR-4 3.72 µM | SR 15.1 µM | RPMI-8226 18.5 µM | SF-539 18.5 µM | NCI-H23 37.2 µM | SK-MEL-5 16 µM | HCC 2998 15.7 µM | SK-MEL-28 39 µM | A498 30.6 µM | DU-145 34 µM | ACHN 23.7 µM | KM12 17.6 µM | UO-31 19.1 µM | SN12C 19 µM | HT-29 17.4 µM | HL-60 13.2 µM | SK-MEL-2 17.7 µM | TK-10 27.3 µM | HOP-92 50.1 µM

N#C[BH2-][n+]1ccc(C(=O)NNCC(F)(F)F)cc1
inactive: IGROV-1 > 100 µM | OVCAR-4 > 100 µM | SR > 100 µM | RPMI-8226 > 100 µM | SF-539 > 100 µM | NCI-H23 > 100 µM | SK-MEL-5 > 100 µM | HCC 2998 > 100 µM | SK-MEL-28 > 100 µM | A498 > 100 µM | DU-145 > 100 µM | ACHN > 100 µM | KM12 > 100 µM | UO-31 > 100 µM | SN12C > 100 µM | HT-29 > 100 µM | HL-60 > 100 µM | SK-MEL-2 > 100 µM | TK-10 > 100 µM | HOP-92 > 100 µM

COC(=O)C(Cc1ccc2c(c1)CCCC2)Cc1cc2c(cc1C(O)OC)CCC2 (centres undefined)
inactive: IGROV-1 > 100 µM | OVCAR-4 80 µM | SR 38.5 µM | RPMI-8226 27.9 µM | SF-539 39.1 µM | NCI-H23 73.5 µM | SK-MEL-5 33.4 µM | HCC 2998 57.9 µM | SK-MEL-28 55 µM | A498 > 100 µM | DU-145 > 100 µM | ACHN 67.1 µM | KM12 44.7 µM | UO-31 93.8 µM | SN12C 96.2 µM | HT-29 27.7 µM | HL-60 11.8 µM | SK-MEL-2 > 100 µM | TK-10 62.2 µM | HOP-92 18.5 µM

O[C@@]1(C#Cc2ccc3c(c2)OCO3)CCC[C@H]1NCc1ccccc1
inactive: IGROV-1 14.1 µM | OVCAR-4 38.6 µM | SR 23.2 µM | RPMI-8226 24 µM | SF-539 16 µM | NCI-H23 29.6 µM | SK-MEL-5 19.4 µM | HCC 2998 17.1 µM | SK-MEL-28 17.6 µM | A498 28.6 µM | DU-145 47.2 µM | ACHN 37.2 µM | KM12 20 µM | UO-31 18.6 µM | HT-29 22.9 µM | HL-60 18.4 µM | SK-MEL-2 16.2 µM | TK-10 27.7 µM | HOP-92 13.7 µM
